pIC50, pKi: −log10 of the molar value.

Assay [1] has as its target T1, purified recombinant human Aggrecanase-1 (rAgg1) (Homo sapiens, UniProt O75173).
T1 sequence (O75173 213-837): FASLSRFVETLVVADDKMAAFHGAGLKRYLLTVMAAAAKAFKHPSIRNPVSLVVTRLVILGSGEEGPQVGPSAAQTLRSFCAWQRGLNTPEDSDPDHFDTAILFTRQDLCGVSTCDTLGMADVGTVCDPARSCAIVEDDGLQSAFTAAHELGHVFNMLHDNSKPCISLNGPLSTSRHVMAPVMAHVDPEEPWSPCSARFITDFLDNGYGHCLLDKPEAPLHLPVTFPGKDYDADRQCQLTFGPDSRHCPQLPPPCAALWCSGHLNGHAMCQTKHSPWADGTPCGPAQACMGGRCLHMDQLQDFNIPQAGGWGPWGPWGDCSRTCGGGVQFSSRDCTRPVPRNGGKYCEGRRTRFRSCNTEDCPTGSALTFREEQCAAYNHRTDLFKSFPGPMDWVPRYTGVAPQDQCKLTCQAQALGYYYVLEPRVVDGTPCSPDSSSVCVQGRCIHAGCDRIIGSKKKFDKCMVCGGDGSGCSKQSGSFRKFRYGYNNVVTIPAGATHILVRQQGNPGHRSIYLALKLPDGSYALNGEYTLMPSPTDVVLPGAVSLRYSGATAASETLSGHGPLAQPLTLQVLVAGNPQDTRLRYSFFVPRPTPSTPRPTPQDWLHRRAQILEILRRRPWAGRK
Put plainly: In vitro fluorescence screen for Aggrecanase-1 inhibitors. Type of assay: biochemical. The conditions noted are these: Table 1; for pKi: enzyme not given, column follows Agg1 IC50, read-out: Ki; for pIC50: read-out: Agg1 IC50.

For a further assay, the target named is T2, MMP-1 (Homo sapiens, UniProt P03956).
T2 sequence (P03956 100-469): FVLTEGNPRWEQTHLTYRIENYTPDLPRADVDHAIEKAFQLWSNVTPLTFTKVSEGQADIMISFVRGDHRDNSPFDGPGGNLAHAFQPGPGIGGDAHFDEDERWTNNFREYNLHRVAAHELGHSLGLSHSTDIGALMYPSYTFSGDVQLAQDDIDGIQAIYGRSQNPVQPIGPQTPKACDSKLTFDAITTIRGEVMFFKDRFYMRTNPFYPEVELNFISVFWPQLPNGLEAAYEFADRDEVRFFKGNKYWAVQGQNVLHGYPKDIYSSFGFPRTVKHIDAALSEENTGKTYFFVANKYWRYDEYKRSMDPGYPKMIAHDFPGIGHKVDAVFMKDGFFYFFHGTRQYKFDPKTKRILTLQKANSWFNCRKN
Description: MMP-1 of Table 1. Particulars: for pIC50: unit inferred. Type of assay: biochemical.

For assay [2], the target named is T3, recombinant human catalytic domain of MMP-13 (Homo sapiens, UniProt P45452).
T3 construct: catalytic domain of MMP-13 (165 amino acids, residues 104-268, 19 kDa)
Put plainly: In vitro fluorescence assay of MMP-13 activity. Type of assay: biochemical. Particulars: Table 1; for pIC50: unit inferred.

The target in assay [3] is T4, purified recombinant human Aggrecanase-2 (Ag2t-Phe628-Strep) (Homo sapiens, UniProt Q9UNA0).
T4 construct: the form used is denoted as Ag2t-Phe628-Strep (MW=41,737)
T4 sequence (Q9UNA0 262-628): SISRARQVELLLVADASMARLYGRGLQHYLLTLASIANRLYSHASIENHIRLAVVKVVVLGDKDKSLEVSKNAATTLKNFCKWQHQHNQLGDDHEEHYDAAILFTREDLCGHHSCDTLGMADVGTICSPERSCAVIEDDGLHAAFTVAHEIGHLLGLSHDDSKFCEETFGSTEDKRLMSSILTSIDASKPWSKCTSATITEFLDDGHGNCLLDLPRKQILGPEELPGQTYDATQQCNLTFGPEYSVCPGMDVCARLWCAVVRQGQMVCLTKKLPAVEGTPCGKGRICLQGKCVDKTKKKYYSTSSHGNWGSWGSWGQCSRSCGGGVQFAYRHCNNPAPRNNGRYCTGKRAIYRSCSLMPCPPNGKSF
Put plainly: In vitro fluorescence screen for Aggrecanase-2 inhibitors. In kind it is biochemical. The conditions noted are these: Table 1; read-out: Agg 2 IC50.

Assay [4] has as its target T5, recombinant human catalytic domain of MMP-14 (Homo sapiens, UniProt P50281).
T5 construct: 177 amino acids corresponding to Tyr89-Gly265 of mature human enzyme; purchased Chemicon International, Inc. CC1041
Description: In vitro fluorescence assay of MMP-14 activity. Type of assay: biochemical. Particulars: Table 1; unit inferred.

A further assay deals with T6, recombinant human MMP-2 (Homo sapiens, UniProt P08253).
T6 sequence (P08253 110-660): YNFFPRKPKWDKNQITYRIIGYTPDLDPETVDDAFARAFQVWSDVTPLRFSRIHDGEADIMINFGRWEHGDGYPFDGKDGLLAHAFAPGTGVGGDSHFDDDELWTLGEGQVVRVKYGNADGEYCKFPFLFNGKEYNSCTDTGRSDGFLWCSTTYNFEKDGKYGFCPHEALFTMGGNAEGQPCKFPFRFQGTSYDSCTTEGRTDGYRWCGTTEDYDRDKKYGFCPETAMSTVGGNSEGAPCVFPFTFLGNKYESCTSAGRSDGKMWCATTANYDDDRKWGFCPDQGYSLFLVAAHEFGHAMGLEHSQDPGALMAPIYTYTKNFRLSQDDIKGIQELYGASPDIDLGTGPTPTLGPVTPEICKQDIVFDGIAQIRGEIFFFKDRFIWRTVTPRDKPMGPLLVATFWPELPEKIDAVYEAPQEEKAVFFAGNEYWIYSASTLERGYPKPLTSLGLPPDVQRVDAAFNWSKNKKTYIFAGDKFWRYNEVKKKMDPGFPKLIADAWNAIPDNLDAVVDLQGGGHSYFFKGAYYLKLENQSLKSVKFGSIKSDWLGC
Put plainly: In vitro fluorescence assay of MMP-2 activity.

Assay [5] deals with bovine articular cartilage treated with Interleukin 1 alpha (IL-1α). Description: Bovine articular cartilage explant cultures: inhibition of degradation of proteoglycan. Particulars: inhibitory effect expressed as percentage, concentration not printed. Type of assay: cell-based. A digest of the protocol: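 Bovine metacarpal cartilage discs (6 mm), equilibrated in serum-free DMEM-based medium, were treated with 5 ng/ml IL-1 plus compound (working solutions 0.1-10 μg/ml), with medium collected and replaced on days 1, 2 and 3. Released proteoglycan was measured by DMMB absorbance at 520 nm against chondroitin sulphate standards, expressed as μg per mg cartilage, and inhibition given as percentage.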

Where [6] appears, read: Table 1, first of two columns headed bovine.
The mark [7] stands for this setting: Table 1, second of two columns headed bovine.

Regarding `O=C(O)CC[C@H](NC(=O)c1ccc(-c2ccccc2)cc1)C(=O)NCc1ccc(Cl)cc1Cl` [Example 8S, N^2-(1,1′-biphenyl-4-ylcarbonyl)-N^1-(2,4-dichlorobenzyl)-L-α-glutamine], the negative-log Ki (pKi) in assay [1] is 6.61. Moreover, the negative logarithm of the IC50 (pIC50) in assay [1] is 6.82; in assay [2], less than 3.70; in assay [3], 5.89; in assay [4], approximately 4.60; on recombinant human MMP-2 it was 5.50. Also, at MMP-1 (unit not given), the MMP-1 result is reported as “no inh”. The bovine in assay [5] (setting [6]) stood at 51%; in assay [5] (setting [7]) it was 40%.
As for `CSc1ccc(CNC(=O)[C@H](CCC(=O)O)NC(=O)c2ccc(-c3ccccc3)cc2)cc1` [Example 8V, N^2-(1,1′-biphenyl-4-ylcarbonyl)-N^1-[4-(methylthio)benzyl]-L-α-glutamine], the pIC50 in assay [1] was 6.80; on MMP-1, less than 4.00; in assay [2] it was approximately 4.17; in assay [3] it was 5.96; in assay [4], approximately 4.52; on recombinant human MMP-2, 5.46. Further, the results for the bovine in assay [5] (setting [6]) and in assay [5] (setting [7]) were 73% and 45%, respectively.
With `CN(C)c1ccc(CNC(=O)[C@H](CCC(=O)O)NC(=O)c2ccc(-c3ccccc3)cc2)cc1` [Example 8ZZZ, N^2-(biphenyl-4-ylcarbonyl)-N^1-[4-(dimethylamino)benzyl]-L-α-glutamine], the pIC50 was 7.00 in assay [1]; less than 4.30 at MMP-1; 5.80 in assay [3]; less than 3.70 in assay [4]; 4.89 on recombinant human MMP-2. For the same compound, the MMP-13 entry in assay [2] (unit not given) was “no inh”. Further, the bovine in assay [5] (setting [6]) is on record as 72%; in assay [5] (setting [7]), 34%.
As to `C=Cc1cccc(CNC(=O)[C@H](CCC(=O)O)NC(=O)c2ccc(-c3ccccc3)cc2)c1` [Example 10M, N^2-(1,1′-biphenyl-4-ylcarbonyl)-N^1-(3-vinylbenzyl)-L-α-glutamine], the negative logarithm of the Ki (pKi) in assay [1] was 7.27. For the same compound, the pIC50 in assay [1] is 7.37; on MMP-1, less than 4.30; in assay [2], approximately 4.70; in assay [3] it was 5.96; in assay [4] it was less than 3.70; on recombinant human MMP-2, less than 4.70. Also, the results for the bovine in assay [5] (setting [6]) and in assay [5] (setting [7]) were 67% and 35%, respectively.
`O=C(O)CC[C@H](NC(=O)c1ccc(-c2ccccc2)cc1)C(=O)NCc1cccc(-c2cccs2)c1` [Example 10N, N^2-(1,1′-biphenyl-4-ylcarbonyl)-N^1-(3-thien-2-ylbenzyl)-L-α-glutamine]: the pKi in assay [1] is 7.55. In addition, the pIC50 in assay [1] is 7.72; against MMP-1, less than 3.70; in assay [2] it was less than 4.30; in assay [3], 6.01; in assay [4], less than 3.70; at recombinant human MMP-2, 5.12. Besides, the bovine in assay [5] (setting [6]) is reported as 65%; in assay [5] (setting [7]), 24%.
`C=Cc1ccc(CNC(=O)[C@H](CCC(=O)O)NC(=O)c2ccc(-c3ccccc3)cc2)cc1` [Example 10R, N^2-(1,1′-biphenyl-4-ylcarbonyl)-N^1-(4-vinylbenzyl)-L-α-glutamine]: the pKi in assay [1] is 6.73. Moreover, the pIC50 was 7.11 in assay [1]; less than 4.30 on MMP-1; less than 4.70 in assay [2]; 5.72 in assay [3]; less than 3.70 in assay [4]; less than 4.70 on recombinant human MMP-2. In addition, the bovine came to 41% in assay [5] (setting [6]) and 0% in assay [5] (setting [7]).
As to `O=C(O)CC[C@H](NC(=O)c1ccc(-c2cccs2)cc1)C(=O)NCc1ccccc1` [Example 11, N^1-benzyl-N^2-(4-thien-2-ylbenzoyl)-L-α-glutamine], the pIC50 in assay [1] is 6.96; against MMP-1, approximately 5.70; in assay [2], approximately 5.30; in assay [3], approximately 6.10; in assay [4], approximately 5.70; at recombinant human MMP-2, approximately 6.00. Moreover, the values for the bovine in assay [5] (setting [6]) and in assay [5] (setting [7]) were 78% and 52%, respectively.
As for `O=C(O)CC[C@H](NC(=O)c1ccc(-c2ccco2)cc1)C(=O)NCc1ccccc1` [Example 12A, N^1-benzyl-N^2-[4-(2-furyl)benzoyl]-L-α-glutamine], the pIC50 in assay [1] was 6.15; on MMP-1, approximately 5.70; in assay [2], approximately 5.22; in assay [3], approximately 5.30; in assay [4] it was approximately 5.70; on recombinant human MMP-2, approximately 5.70. For the same compound, the bovine in assay [5] (setting [6]) is listed as 41%; in assay [5] (setting [7]) it was 18%.
As to `Cc1cc(C)cc(-c2ccc(C(=O)N[C@@H](CCC(=O)O)C(=O)NCc3ccccc3)cc2)c1` [Example 13A, N^1-benzyl-N^2-[(3′,5′-dimethyl-1,1′-biphenyl-4-yl)carbonyl]-L-α-glutamine], the pIC50 in assay [1] was 5.82; against MMP-1 it was less than 4.00; in assay [2], less than 4.00; in assay [3] it was approximately 4.17; in assay [4], less than 4.00; on recombinant human MMP-2, approximately 4.17. Besides, the values for the bovine in assay [5] (setting [6]) and in assay [5] (setting [7]) were 37% and 18%, respectively.
On to `CCOc1cccc(-c2ccc(C(=O)N[C@@H](CCC(=O)O)C(=O)NCc3ccccc3)cc2)c1` [Example 13D, N^1-benzyl-N^2-[(3′-ethoxy-1,1′-biphenyl-4-yl)carbonyl]-L-α-glutamine], for which the pIC50 in assay [1] was 6.12; on MMP-1 it was less than 4.00; in assay [2], less than 3.70; in assay [3], approximately 4.59; in assay [4], less than 4.00; at recombinant human MMP-2, less than 3.70. Also, the bovine was found to be 51% in assay [5] (setting [6]) and 25% in assay [5] (setting [7]).

What is called pKi is −log10 of the Ki, conventionally taken in molar units. As usually defined, the pIC50 is −log10 of the IC50, conventionally taken in molar units.

For the origin of these results see US7998965B2, “Glutamate aggrecanase inhibitors” (Wyeth LLC, priority 2005, dated 2011).
